US11753433B2, “Methods of synthesizing substituted purine compounds” (Epizyme, Inc., priority 2013, dated 2023)

Experiments:
Format in all cases: physicochemical
[1] = Solid-state stability
Description: Chemical Stability: Accurately weighed ˜10 mg Form B was placed into four 10-ml volumetric flasks. The samples were stored at 5° C. closed dish, 25° C./57% RH open dish, 40° C./75% RH open dish, and 60° C. closed dish for 7 days. The sample stored at 5° C. was used as a control. Assay and total related substances for each sample were checked at the end of 7 days.
Physical Stability: Accurately weighed ˜15 mg of Form B was placed into 5-ml glass vials and the samples were stored at 5° C. closed dish, 25° C./57% RH open dish, 40° C./75% RH open dish, and 60° C. closed dish for 7 days. Samples were analyzed by XRPD and TGA (FIG. 24).

[2] = Equilibrium solubility in aqueous media; conditions: for solubility at 24 h: 25 °C, thermodynamic from solid; for Remaining Solid: XRPD
Description: Approximately 10 mg of Form B was weighed into a 1-ml glass vial followed by addition of 0.5 ml relevant media. Each sample was continuously stirred using a magnetic stir bar at 25° C. for 24 h. The suspension was then filtered using a nylon membrane with a pore diameter of 0.22 μm. The filtrates were diluted for HPLC analysis and final pH was measured. The solid residue of each sample was collected for XRPD analysis.
The solubilities of Form B in water and five different pH values at 25° C. were determined by HPLC after 24 h equilibration. Solubility data for Form B was obtained across the physiological pH by using buffer solutions from pH 2 to pH 10.
Preparation of pH Buffers • pH 2: 0.01N HCl solution. Dilute 1 ml of 1 N HCl with H2O up to a total volume of 100 ml. Measure the pH and precisely adjust to pH=2.00 using a few microliters of 1N HCl or 1N NaOH. • pH 4: 50 mM Na citrate buffer. Prepare a 50 mM citric acid solution by diluting 10 ml of 1N citric acid with H2O up to a total volume of 200 ml. Slowly add solid NaOH under stirring to increase the pH to 3.8-4.0 and use a few microliters of 1N NaOH for final adjustment to pH 4.00. • pH 6: 50 mM Na citrate buffer. Use the same procedure as the pH 4 buffer and adjust to pH=6.00 • pH 8: 50 mM Na phosphate buffer. Prepare a 50 mM NaH2PO4 solution by dissolving 6.00 g NaH2PO4 in 1 L of H2O and a 50 mM Na2HPO4 solution by dissolving 7.10 g in 1 L of H2O. Mix 10 ml of the NaH2PO4 solution with 140 ml of the Na2HPO4 solution in a beaker. Adjust to pH 8.00 by addition of small amounts of 50 mM NaH2PO4 or Na2HPO4 solution. • pH 10: 50 mM Na carbonate buffer. Prepare a 50 mM carbonate solution by dissolving 840 mg of sodium bicarbonate (NaHCO3) in about 180 ml of H2O. Slowly adjust the pH to 10.0±0.1 by addition of 1N NaOH. Add water to reach the total volume of 200 ml and adjust to pH 10.00 with 1N NaOH.

[3] = Dynamic vapor sorption (DVS) hygroscopicity; conditions: between 0% and 95% RH, 25° C.
Description: (peak temperature) which is accompanied by 5.9 wt % weight loss up to ˜150° C. in the TGA curve (FIG. 3). […] A solid is considered moderately hygroscopic when water uptake at 25° C./80% RH is between 2-15 wt % based on criteria of European Pharmacopeia. […] Form B of EP-1 trihydrate (x is 3) is a trihydrate as confirmed by single crystal analysis. The experimental XRPD pattern of Form B matches well with the simulated one from single crystal data (FIG. 6). This was also confirmed by DSC and TGA data (FIG. 7 and FIG. 8, respectively). DSC data indicates Form B dehydrates at ˜132° C. […] Form B is slightly hygroscopic as evidenced by a weight change of ˜0.3% between 0% and 95% RH (FIG. 9), (data collection was programmed from 95% RH-0% RH-95% RH at a step size of 10% RH at 25° C.).

[4] = Slurry experiments using Form A and Form B (relative stability)
Description: The relative stability between Form A and Form B was investigated by slurry experiments in ACN (containing less than 0.3 wt % water), ACN/H2O (v/v, 3; 1), and H2O at room temperature and 50° C. In general, about 10-30 mg Form A was added to a 5-ml glass vial with 0.5 ml corresponding solvents to get suspensions at room temperature and 50° C., respectively. Then 10-30 mg Form B was added to the suspensions which were kept stirring for 24 h. The water activity was calculated using the UNIFAC model.

[5] = 5° C. Closed Dish, 7 Days (control)
[6] = 25° C./57% RH Open Dish, 7 Days
[7] = 40° C./75% RH Open Dish, 7 Days
[8] = 0.01N HCl, pH (initial) 2.0, RT, 24 h
[9] = 50 mM Na carbonate buffer, pH (initial) 10.0, RT, 24 h
[10] = 50 mM Na phosphate buffer, pH (initial) 8.0, RT, 24 h
[11] = 50 mM sodium citrate, pH (initial) 4.0, RT, 24 h
[12] = 50 mM sodium citrate, pH (initial) 6.0, RT, 24 h

For `CC(C)N(C[C@H]1O[C@@H](n2cnc3c(N)ncnc32)[C@H](O)[C@@H]1O)[C@H]1C[C@@H](CCc2nc3cc(C(C)(C)C)ccc3[nH]2)C1` [Form B, (2R,3R,4S,5R)-2-(6-amino-9H-purin-9-yl)-5-((((1r,3S)-3-(2-(5-(tert-butyl)-1H-benzo[d]imidazol-2-yl)ethyl)cyclobutyl)(isopropyl)amino)methyl)tetrahydrofuran-3,4-diol trihydrate], the “Chemical Area % (100% − TRS %)” value [1, 5] was 99.1%, the “Physical TGA (%)” value [1, 5] was 8.63% and the “Physical XRPD” value [1, 5] was “Form B”. For the same compound, the “Chemical % Claim (Cs/Ci × 100%)” value ([1]; 5° C. Closed Dish, 7 Days (used as standard)) was 100.0^& %, the “Chemical % Claim (Cs/Ci × 100%)” value [1, 6] was 100.7% and the “Chemical Area % (100% − TRS %)” value [1, 6] was 99.0%. The “Physical TGA (%)” value [1, 6] was 8.66%, the “Physical XRPD” value [1, 6] was “Form B” and the “Chemical % Claim (Cs/Ci × 100%)” value [1, 7] was 101.0%. For the same compound, the “Chemical Area % (100% − TRS %)” value [1, 7] was 99.0%, the “Physical TGA (%)” value [1, 7] was 8.64% and the “Physical XRPD” value [1, 7] was “Form B”. The “Chemical % Claim (Cs/Ci × 100%)” value ([1]; 60° C. Closed Dish, 7 Days) was 100.7%, the “Chemical Area % (100% − TRS %)” value ([1]; 60° C. Closed Dish, 7 Days) was 99.1% and the “Physical TGA (%)” value ([1]; 60° C. Closed Dish, 7 Days) was 8.49%. For the same compound, the “Physical XRPD” value ([1]; 60° C. Closed Dish, 7 Days) was “Form B”, the solubility at 24 h ([2]; 0.01N HCl solution, pH 2, simulated gastric fluid, 0.01N HCl, pH (initial) 2.0, RT, 24 h) was 3400 µg/mL and the “pH (final)” value [2, 8] was 5.5. For the same compound, the “Remaining Solid” value [2, 8] was “Form B”, the “pH (final)” value [2, 9] was 10.0 and the “Remaining Solid” value [2, 9] was “Form B”. For the same compound, the Solubility ([2]; 50 mM Na carbonate buffer, pH (initial) 10.0, RT, 24 h, LOD 0.1 μg/ml) was “<LOD^”, the “pH (final)” value [2, 10] was 8.0 and the “Remaining Solid” value [2, 10] was “Form B”. For the same compound, the Solubility ([2]; 50 mM Na phosphate buffer, pH (initial) 8.0, RT, 24 h, LOD 0.1 μg/ml) was “<LOD^§”, the solubility at 24 h ([2]; 50 mM sodium citrate buffer, pH 4, aqueous buffer, 50 mM sodium citrate, pH (initial) 4.0, RT, 24 h) was 9800 µg/mL and the solubility at 24 h ([2]; 50 mM sodium citrate buffer, pH 6, aqueous buffer, 50 mM sodium citrate, pH (initial) 6.0, RT, 24 h) was 80 µg/mL. The “pH (final)” value [2, 11] was 5.4, the “Remaining Solid” value [2, 11] was “Form B” and the Solubility ([2]; 50 mM sodium citrate, pH (initial) 4.0, RT, 24 h, trihydrate) was 9.7 mg/mL. For the same compound, the “pH (final)” value [2, 12] was 6.0, the “Remaining Solid” value [2, 12] was “Form B” and the “pH (final)” value ([2]; Water (unbuffered), RT, 24 h) was 5.6. For the same compound, the “Remaining Solid” value ([2]; Water (unbuffered), RT, 24 h) was “Form B”, the solubility at 24 h ([2]; unbuffered water, water, RT) was 1.2 µg/mL and the solubility at 24 h ([2]; unbuffered water, water, Water (unbuffered), RT, 24 h) was 1.2 µg/mL. The “weight change (DVS)” value [3] was roughly 0.3%, the “water activity at which Form B is thermodynamically more stable than Form A” value ([4]; 50° C.) was no less than 0.08 and the “water activity at which Form B is thermodynamically more stable than Form A” value ([4]; RT) was no less than 0.09.
